Test results from US20100249064A1, “METHODS AND COMPOSITIONS FOR TREATING DISEASES AND CONDITIONS INVOLVING HIGHER MOLECULAR WEIGHT HYALURONAN” (University of Chicago, priority 2007, published 2010).

Experiments:
[1] = system: Human pulmonary artery EC; experiment: Transendothelial electrical resistance (TER) of HA-treated EC monolayers, Example 1; assay type: cell-based; conditions: 5 mM MβCD or 10 μg/ml anti-CD44 (IM-7) antibody, 100 nM High or Low MW HA
Protocol: Measurement of TransEC Electrical Resistance (TER)—EC were grown to confluence in polycarbonate wells containing evaporated gold microelectrodes. TER measurements were performed using an electrical cell-substrate impedance sensing system (Applied Biophysics, Troy, N.Y.) as described (Garcia et al., 2001). TER values from each microelectrode were pooled at discrete time points and plotted versus time as the mean±S.E.

[2] = system: Human pulmonary artery EC; experiment: Cortical actin (phalloidin) staining and quantitation; assay type: cell-based; conditions: MβCD one hour prior to 100 nM High MW HA for 30 min
Protocol: Immunofluorescence Microscopy and Cortical Actin Quantitation—Polymerized actin rearrangement was assessed first with Texas Red-conjugated phalloidin (Invitrogen (Molecular Probes), Eugene, Oreg.) and then analyzed using a Nikon Eclipse TE 300 microscope as described (Garcia et al., 2001). ImageQuant™ software (Amersham Biosciences Corp. (Piscataway, N.J.)) was used to analyze the computer recorded .tiff images. A standardized average grey value (SAGV) was generated for total phalloidin staining versus cortical phalloidin staining for each cell (Singleton et al., 2005). The following equation was used to calculate percent cortical actin staining: ((cortical actin SAGV×area) divided by (total actin SAGV×area))×100. At least ten cells per sample were analyzed. Experiments were performed in triplicate.
Immunofluorescence Microscopy. EC were serum-starved for one hour prior to the addition of 100 nM high MW HA. EC were then fixed in 4% paraformaldehyde, permeablized with ethanol and incubated with specific protein or interest primary antibody for 30 min followed by either FITC or Texas Red-conjugated secondary (Invitrogen (Molecular Probes), Eugene, Oreg.) and analyzed using a Nikon Eclipse TE 300 microscope as described (Garcia et. al., 2001).

Rac1 = Rac1 activation assay, HGF; assay type: cell-based, human; conditions: 5 mM MβCD prior to 25 ng/ml HGF
Protocol: Rac1 Activation Assay—Rac1 activity assays were performed as described (Ren et al., 1999) in human lung EC.

Human pulmonary EC [3] = experiment: TER, Example 5; assay type: cell-based; conditions: MβCD or IM-7 antibody
Protocol: (§1) Measurement of TransEC Electrical Resistance (TER). EC were grown to confluence in polycarbonate wells containing evaporated gold microelectrodes, and TER measurements performed using an electrical cell-substrate impedance sensing system (Applied Biophysics, Troy, N.Y.) as previously described (Garcia et al., 2001). TER values from each microelectrode were pooled at discrete time points and plotted versus time as the mean±S.E.

[4] = system: Human pulmonary microvascular EC (HPMVEC); experiment: EC electrical resistance (TER), HGF; assay type: cell-based; conditions: 5 mM MβCD 30 min prior to 25 ng/ml HGF
Protocol: as §1, with “EC” for “TransEC”, “Resistance—EC” for “Resistance (TER). EC”, “measurements were” for “measurements”, “obtained from Applied Biophysics (Troy,” for “(Applied Biophysics, Troy,”, “as” for “as previously”

[5] = molecular target: T1, HABP2, murine (mouse lung) (mouse, UniProt Q8K0D2 24-558, limits assumed); experiment: anti-HABP2 immunoprecipitation of mouse lung homogenates, non-reducing SDS-PAGE, immunoblot
T1 construct: Immunoprecipitated with anti-HABP2 antibody from mouse lung homogenates; also called murine HABP2
Protocol: FIG. 24 Analysis of HABP2 and C1INH expression and complex formation in murine lungs with or without LPS treatment and effective silencing of HABP2 expression in murine lungs. Panel A—Male B6129N2 mice (8-10 weeks) were anesthetized with intraperitoneal ketamine (150 mg/kg) and acetylpromazine (15 mg/kg) before exposure of the right internal jugular vein via neck incision. LPS (2.5 mg/kg) or water (control) were instilled […]. The animals were allowed to recover for 24 hours after LPS before lung extraction. Extracted lungs were homogenized, N=6 samples per condition were pooled, run on SDS-PAGE and immunoblotted with anti-HABP2 (1), anti-C1INH (2) or anti-actin (3) antibody. Panel B—Homogenized lung samples as described in Panel A were immunoprecipitated with anti-HABP2 antibody, run on non-reducing SDS-PAGE and immunoblotted with either anti-HABP2 or anti-C1INH antibody. The upper arrow indicates an SDS-stable complex between HABP2 and C1INH. The lower arrow indicates the free (active) faun of HABP2. Panel C—Male B6129N2 mice (8-10 weeks) were anesthetized with intraperitoneal ketamine (150 mg/kg) and acetylpromazine (15 mg/kg) before exposure of the right internal jugular vein via neck incision. 10 mg/kg in vivo stable scramble siRNA (control) or HABP2 siRNA (Dharmacon) were instilled intravenously through the internal jugular vein. […]

Human pulmonary EC [6] = experiment: TER, HABP2/C1INH regulation of EC barrier function (Examples 3 and 6); assay type: cell-based; conditions: purified C1INH; 1.0 μg/ml LPS, 100 nM HA, 10 μg/ml HABP2
Protocol: as §1, with “transendothelial monolayer electrical resistance” for “TransEC Electrical Resistance”, “obtained from Applied Biophysics (Troy,” for “(Applied Biophysics, Troy,”, “described in detail” for “described”, “al.” for “al.,”
Determination of EC barrier function. Human pulmonary endothelial cells were grown to confluence in polycarbonate wells containing evaporated gold microelectrodes (surface area, 10-3 cm^2) in series with a large gold counter electrode (1 cm^2) connected to a phase-sensitive lock-in amplifier as described previously. Measurements of transendothelial electrical resistance (TER) were performed using an electrical cell-substrate impedance sensing system (ECIS) (Applied BioPhysics Inc.). Briefly, current was applied across the electrodes by a 4,000-Hz AC voltage source with amplitude of 1 V in series with a 1 MS/resistance to approximate a constant current source (˜1 μA). The in-phase and out-of-phase voltages between the electrodes were monitored in real time with the lock-in amplifier and subsequently converted to scalar measurements of transendothelial impedance, of which resistance was the primary focus. TER was monitored for 30 minutes to establish a baseline resistance (R0) which, for pulmonary endothelium, was typically between 8 to 12×10^3Ω (wells with R0<7×10^3Ω were rejected). As cells adhere and spread out on the microelectrode, TER increases (maximal at confluence), whereas cell retraction, rounding, or loss of adhesion was reflected by a decrease in TER. These measurements provide a highly sensitive biophysical assay that indicates the state of cell shape and focal adhesion. Values from each microelectrode were pooled at discrete time points and plotted versus time as the mean±SE of the mean (Garcia et al., 2001).

Tiam1 = molecular target: T2, Tiam1 (human, UniProt Q13009 2-1591, limits assumed); experiment: immunoprecipitation of dynamin 2 from CEM fractions of human EC, immunoblot with anti-Tiam1
T2 construct: Endogenous protein in CEM fractions; also called T-lymphoma invasion and metastasis gene 1
Protocol: Immunoprecipitation and Immunoblotting—Cellular materials from treated or untreated HPMVEC were incubated with IP buffer (50 mM HEPES (pH 7.5), 150 mM NaCl, 20 mM MgCl₂, 1% Nonidet P-40 (NP-40), 0.4 mM Na₃VO₄, 40 mM NaF, 50 μM okadaic acid, 0.2 mM phenylmethylsulfonyl fluoride, 1:250 dilution of Calbiochem protease inhibitor mixture 3). Following immunoprecipitation with either anti-CD44 or anti-dynamin 2 IgG, the samples were subjected to SDS-PAGE in 4-15% polyacrylamide gels, transferred onto Immobilon™ membranes, and developed with specific primary and secondary antibodies. Enhanced chemiluminescence (Amersham Biosciences) was used to visualize immunoreactive bands. In some instances, standardized average grey values (S.A.G.V., processed from ImageQuant™ software (Amersham Biosciences)) were obtained for immunoreactive bands for quantification.
Role of Tiam1, cortactin and dynamin 2 in HGF/c-Met-mediated human EC barrier enhancement. Since CD44 appears to regulate HGF-induced EC barrier enhancement (FIG. 12), whether Tiam1, cortactin and/or dynamin 2 were involved in HGF-induced increases in EC barrier integrity was examined. […] Silencing CD44 (siRNA) expression attenuated the HGF-induced recruitment of these molecules to CEM (FIG. 13-B); silencing either Tiam1 or dynamin 2 expression abolished cortactin localization to CEM (FIG. 14-A and -B). […]

T1 sequence (Q8K0D2 24-558 limits assumed): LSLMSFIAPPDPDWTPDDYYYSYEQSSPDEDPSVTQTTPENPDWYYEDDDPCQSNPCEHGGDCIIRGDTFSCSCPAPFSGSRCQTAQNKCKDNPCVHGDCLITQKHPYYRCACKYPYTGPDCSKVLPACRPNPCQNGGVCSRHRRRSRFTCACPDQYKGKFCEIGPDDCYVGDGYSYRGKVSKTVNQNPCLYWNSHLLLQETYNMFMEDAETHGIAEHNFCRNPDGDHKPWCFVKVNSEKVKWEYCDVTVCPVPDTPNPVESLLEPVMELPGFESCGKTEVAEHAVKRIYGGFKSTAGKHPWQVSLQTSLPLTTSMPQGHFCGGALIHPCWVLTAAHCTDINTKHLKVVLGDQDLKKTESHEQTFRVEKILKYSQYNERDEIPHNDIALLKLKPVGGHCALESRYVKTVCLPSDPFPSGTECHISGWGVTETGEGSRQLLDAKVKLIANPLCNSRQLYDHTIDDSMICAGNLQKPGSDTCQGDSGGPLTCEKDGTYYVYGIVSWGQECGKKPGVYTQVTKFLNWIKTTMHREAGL
T2 sequence (Q13009 2-1591 limits assumed): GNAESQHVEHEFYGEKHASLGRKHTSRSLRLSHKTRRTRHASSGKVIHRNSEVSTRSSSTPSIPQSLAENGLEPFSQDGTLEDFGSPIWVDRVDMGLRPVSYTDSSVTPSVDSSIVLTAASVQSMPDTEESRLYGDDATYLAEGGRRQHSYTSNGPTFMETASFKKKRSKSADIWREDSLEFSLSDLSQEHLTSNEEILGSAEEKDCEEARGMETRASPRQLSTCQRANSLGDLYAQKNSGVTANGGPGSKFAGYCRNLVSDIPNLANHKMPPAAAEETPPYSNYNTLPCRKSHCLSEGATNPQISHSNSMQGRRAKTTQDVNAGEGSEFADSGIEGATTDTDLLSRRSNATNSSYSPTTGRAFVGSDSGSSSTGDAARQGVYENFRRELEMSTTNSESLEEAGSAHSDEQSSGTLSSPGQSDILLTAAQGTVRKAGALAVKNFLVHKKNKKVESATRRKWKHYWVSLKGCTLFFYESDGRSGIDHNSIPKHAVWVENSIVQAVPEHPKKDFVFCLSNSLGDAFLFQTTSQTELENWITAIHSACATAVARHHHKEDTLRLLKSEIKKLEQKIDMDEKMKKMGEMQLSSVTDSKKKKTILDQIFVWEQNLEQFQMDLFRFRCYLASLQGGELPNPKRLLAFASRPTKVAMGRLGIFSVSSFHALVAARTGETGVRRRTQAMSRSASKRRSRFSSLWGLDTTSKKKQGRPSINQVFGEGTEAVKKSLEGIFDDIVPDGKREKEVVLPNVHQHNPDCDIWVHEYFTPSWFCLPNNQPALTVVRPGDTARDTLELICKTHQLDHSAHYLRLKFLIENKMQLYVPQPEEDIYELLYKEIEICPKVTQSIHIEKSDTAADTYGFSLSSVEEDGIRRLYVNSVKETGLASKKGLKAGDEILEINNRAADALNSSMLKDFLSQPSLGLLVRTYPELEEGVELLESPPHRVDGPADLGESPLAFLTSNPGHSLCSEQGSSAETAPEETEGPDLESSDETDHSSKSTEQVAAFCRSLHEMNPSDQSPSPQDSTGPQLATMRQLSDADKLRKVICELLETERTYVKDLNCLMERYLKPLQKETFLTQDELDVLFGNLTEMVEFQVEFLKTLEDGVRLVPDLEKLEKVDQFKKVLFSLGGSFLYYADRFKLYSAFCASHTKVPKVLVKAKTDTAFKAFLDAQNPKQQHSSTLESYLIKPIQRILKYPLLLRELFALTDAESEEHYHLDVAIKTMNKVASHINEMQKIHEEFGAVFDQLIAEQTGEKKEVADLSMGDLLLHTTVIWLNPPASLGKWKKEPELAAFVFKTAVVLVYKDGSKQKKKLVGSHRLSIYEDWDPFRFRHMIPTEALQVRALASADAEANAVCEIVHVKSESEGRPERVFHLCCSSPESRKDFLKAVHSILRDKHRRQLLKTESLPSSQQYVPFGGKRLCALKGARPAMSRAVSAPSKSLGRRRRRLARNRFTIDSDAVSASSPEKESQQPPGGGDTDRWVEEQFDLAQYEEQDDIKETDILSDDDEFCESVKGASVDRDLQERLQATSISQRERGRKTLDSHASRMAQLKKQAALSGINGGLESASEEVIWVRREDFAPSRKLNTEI

What does the source list for methyl-β-cyclodextrin?
inhibition of HA-induced changes in TER [1]: abolished both HMW- and LMW-HA-induced changes in TER; inhibition of HMW-HA induced cortical actin reorganization [2]: HMW-HA induced cortical actin reorganization was inhibited; inhibition of HGF-induced Rac1 activation (Rac1): inhibited HGF-induced Rac1 activation; inhibition of effects of HA on TER (Human pulmonary EC [3]): effects of HA on TER were inhibited; inhibition of HGF-induced increases in EC barrier function (TER) [4]: attenuated HGF-induced increases in human EC barrier function

B1: C1INH, murine (mouse lung) (other, UniProt P97290 23-504, looked up)
chain: DPEATSHSTQDPLEAQAKSRESFPERDDSWSPPEPTVLPSTWPTTSVAITITNDTMGKVANESFSQHSQPAAQLPTDSPGQPPLNSSSQPSTASDLPTQATTEPFCPEPLAQCSDSDRDSSEAKLSEALTDFSVKLYHAFSATKMAKTNMAFSPFSIASLLTQVLLGAGDSTKSNLESILSYPKDFACVHQALKGFSSKGVTSVSQIFHSPDLAIRDTYVNASQSLYGSSPRVLGPDSAANLELINTWVAENTNHKIRKLLDSLPSDTCLVLLNAVYLSAKWKITFEPKKMMAPFFYKNSMIKVPMMSSVKYPVAQFDDHTLKAKVGQLQLSHNLSFVIVVPVFPKHQLKDVEKALNPTVFKAIMKKLELSKFLPTYLTMPHIKVKSSQDMLSVMEKLEFFDFTYDLNLCGLTEDPDLQVSAMKHETVLELTESGVEAAAASAISFGRSLPIFEVQRPFLFLLWDQQHRFPVFMGRVYDPRG
notes: Detected with anti-C1INH antibody in anti-HABP2 immunoprecipitates of mouse lung homogenates
Does B1 bind [5]?
Result: binds

And the “effect on EC barrier changes (TER) induced by LPS, LMW-HA, HABP2 and HMW-HA” value (Human pulmonary EC [6])?
The value was “inhibited the EC barrier disrupting effects of LPS, LMW-HA and HABP2 while enhancing the barrier protective effects of HMW-HA”.

B2: dynamin 2 (other, human, UniProt P50570 1-870, looked up)
chain: MGNRGMEELIPLVNKLQDAFSSIGQSCHLDLPQIAVVGGQSAGKSSVLENFVGRDFLPRGSGIVTRRPLILQLIFSKTEHAEFLHCKSKKFTDFDEVRQEIEAETDRVTGTNKGISPVPINLRVYSPHVLNLTLIDLPGITKVPVGDQPPDIEYQIKDMILQFISRESSLILAVTPANMDLANSDALKLAKEVDPQGLRTIGVITKLDLMDEGTDARDVLENKLLPLRRGYIGVVNRSQKDIEGKKDIRAALAAERKFFLSHPAYRHMADRMGTPHLQKTLNQQLTNHIRESLPALRSKLQSQLLSLEKEVEEYKNFRPDDPTRKTKALLQMVQQFGVDFEKRIEGSGDQVDTLELSGGARINRIFHERFPFELVKMEFDEKDLRREISYAIKNIHGVRTGLFTPDLAFEAIVKKQVVKLKEPCLKCVDLVIQELINTVRQCTSKLSSYPRLREETERIVTTYIREREGRTKDQILLLIDIEQSYINTNHEDFIGFANAQQRSTQLNKKRAIPNQGEILVIRRGWLTINNISLMKGGSKEYWFVLTAESLSWYKDEEEKEKKYMLPLDNLKIRDVEKGFMSNKHVFAIFNTEQRNVYKDLRQIELACDSQEDVDSWKASFLRAGVYPEKDQAENEDGAQENTFSMDPQLERQVETIRNLVDSYVAIINKSIRDLMPKTIMHLMINNTKAFIHHELLAYLYSSADQSSLMEESADQAQRRDDMLRMYHALKEALNIIGDISTSTVSTPVPPPVDDTWLQSASSHSPTPQRRPVSSIHPPGRPPAVRGPTPGPPLIPVPVGAAASFSAPPIPSRPGPQSVFANSDLFPAPPQIPSRPVRIPPGIPPGVPSRRPPAAPSRPTIIRPAEPSLLD
notes: Immunoprecipitated with rabbit anti-dynamin 2 antibody from solubilized CEM fractions
Does B2 bind (Tiam1)?
Result: no binding
